Patent US20140348819A1, “Methods of Treating Cancer” (Dana-Farber Cancer Institute, Inc., priority 2011, published 2014)

How the values were obtained:
[1] = tested on: six V600E BRAF melanoma cell lines; test: Screening of recombinant RTK ligands for ability to confer resistance to BRAFi (PLX4720) or MEKi (PD184352) (Table 4); assay type: cell-based, human; parameters: ability of recombinant RTK ligand to confer resistance / ability of recombinant RTK ligand to confer resistance (screening value): scale not given here
Summary of the method: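 Six V600E BRAF melanoma lines treated with PLX4720 or PD184352 after addition of 22 recombinant RTK ligands, scored for drug resistance. Activation of selected RTKs confirmed by western blotting and high-throughput tyrosine kinase phosphorylation profiling.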

[2] = tested on: pERK/pAKT; test: High-throughput western analysis of pERK/pAKT re-activation by RTK ligands under BRAFi/MEKi; assay type: cell-based, human; conditions: under BRAFi (PLX4720); after 1 hour of cytokine treatment; six V600E BRAF melanoma cell lines
Method: FIG. 23B is a western blot showing the activation of AKT (phosphorylated AKT, S473) after 1 hour and 24 hours after treatment with HGF, IGF-1 (IGF), and Insulin (INS) in the presence of BRAFi (PLX4720, 2 μM). FIG. 23C is a western blot showing the effect of HGF (25 ng/mL) on MAPK and PI3K/AKT pathway activation (pRAF1, pMEK, pERK, pAKT and pMET) in melanoma cell lines after 24 hours of treatment with 2 μM BRAFi (PLX4720) or 2 μM MEKi (PD184352).
To understand why, of all the RTKs tested, only HGF could induce such a unique primary resistance phenotype, a high-throughput western analysis was used to test the ability of all 22 RTK ligands to re-activate pERK/pAKT under BRAFi (PLX4720) treatment in six V600E BRAF melanoma cell lines. […] However, whereas the activation of both ERK and AKT by HGF under PLX4720 treatment was long lasting, the activation of either ERK or AKT by the above cytokines was only transient and thus could not confer resistance to the melanoma cell lines.

insulin: RTK ligand (INSR), cytokine tested
ability of recombinant RTK ligand to confer resistance ([1]; A2058, PD184352 - 1 uM, ligand 156.25 ng/ml): 0.98
ability of recombinant RTK ligand to confer resistance ([1]; A2058, PD184352 - 1 uM, ligand 625 ng/ml): 0.99
ability of recombinant RTK ligand to confer resistance ([1]; A2058, PD184352 - 1 uM, ligand 2500 ng/ml): 1.14
ability of recombinant RTK ligand to confer resistance ([1]; A2058, PD184352 - 1 uM, ligand 10000 ng/ml): 1.03
ability of recombinant RTK ligand to confer resistance ([1]; A2058, PD184352 - 1 uM, ligand 40000 ng/ml): 1.06
ability of recombinant RTK ligand to confer resistance ([1]; A2058, PLX4720 - 2 uM, ligand 156.25 ng/ml): 0.98
ability of recombinant RTK ligand to confer resistance ([1]; A2058, PLX4720 - 2 uM, ligand 625 ng/ml): 0.96
ability of recombinant RTK ligand to confer resistance ([1]; A2058, PLX4720 - 2 uM, ligand 2500 ng/ml): 1.12
ability of recombinant RTK ligand to confer resistance ([1]; A2058, PLX4720 - 2 uM, ligand 10000 ng/ml): 1.02
ability of recombinant RTK ligand to confer resistance ([1]; A2058, PLX4720 - 2 uM, ligand 40000 ng/ml): 1.11
ability of recombinant RTK ligand to confer resistance ([1]; C32, PD184352 - 1 uM, ligand 156.25 ng/ml): 1.09
ability of recombinant RTK ligand to confer resistance ([1]; C32, PD184352 - 1 uM, ligand 625 ng/ml): 1.08
ability of recombinant RTK ligand to confer resistance ([1]; C32, PD184352 - 1 uM, ligand 2500 ng/ml): 1.20
ability of recombinant RTK ligand to confer resistance ([1]; C32, PD184352 - 1 uM, ligand 10000 ng/ml): 1.08
ability of recombinant RTK ligand to confer resistance ([1]; C32, PD184352 - 1 uM, ligand 40000 ng/ml): 1.04
ability of recombinant RTK ligand to confer resistance ([1]; C32, PLX4720 - 2 uM, ligand 156.25 ng/ml): 1.14
ability of recombinant RTK ligand to confer resistance ([1]; C32, PLX4720 - 2 uM, ligand 625 ng/ml): 1.05
ability of recombinant RTK ligand to confer resistance ([1]; C32, PLX4720 - 2 uM, ligand 2500 ng/ml): 1.20
ability of recombinant RTK ligand to confer resistance ([1]; C32, PLX4720 - 2 uM, ligand 10000 ng/ml): 1.02
ability of recombinant RTK ligand to confer resistance ([1]; C32, PLX4720 - 2 uM, ligand 40000 ng/ml): 1.04
ability of recombinant RTK ligand to confer resistance ([1]; Colo 829, PD184352 - 1 uM, ligand 156.25 ng/ml): 0.91
ability of recombinant RTK ligand to confer resistance ([1]; Colo 829, PD184352 - 1 uM, ligand 625 ng/ml): 0.98
ability of recombinant RTK ligand to confer resistance ([1]; Colo 829, PD184352 - 1 uM, ligand 2500 ng/ml): 0.98
ability of recombinant RTK ligand to confer resistance ([1]; Colo 829, PD184352 - 1 uM, ligand 10000 ng/ml): 1.02
ability of recombinant RTK ligand to confer resistance ([1]; Colo 829, PD184352 - 1 uM, ligand 40000 ng/ml): 1.02
ability of recombinant RTK ligand to confer resistance ([1]; Colo 829, PLX4720 - 2 uM, ligand 156.25 ng/ml): 0.91
ability of recombinant RTK ligand to confer resistance ([1]; Colo 829, PLX4720 - 2 uM, ligand 625 ng/ml): 0.93
ability of recombinant RTK ligand to confer resistance ([1]; Colo 829, PLX4720 - 2 uM, ligand 2500 ng/ml): 0.97
ability of recombinant RTK ligand to confer resistance ([1]; Colo 829, PLX4720 - 2 uM, ligand 10000 ng/ml): 1.01
ability of recombinant RTK ligand to confer resistance ([1]; Colo 829, PLX4720 - 2 uM, ligand 40000 ng/ml): 1.00
ability of recombinant RTK ligand to confer resistance ([1]; G-361, PD184352 - 1 uM, ligand 156.25 ng/ml): 0.98
ability of recombinant RTK ligand to confer resistance ([1]; G-361, PD184352 - 1 uM, ligand 625 ng/ml): 0.91
ability of recombinant RTK ligand to confer resistance ([1]; G-361, PD184352 - 1 uM, ligand 2500 ng/ml): 1.01
ability of recombinant RTK ligand to confer resistance ([1]; G-361, PD184352 - 1 uM, ligand 10000 ng/ml): 0.98
ability of recombinant RTK ligand to confer resistance ([1]; G-361, PD184352 - 1 uM, ligand 40000 ng/ml): 0.97
ability of recombinant RTK ligand to confer resistance ([1]; G-361, PLX4720 - 2 uM, ligand 156.25 ng/ml): 0.92
ability of recombinant RTK ligand to confer resistance ([1]; G-361, PLX4720 - 2 uM, ligand 625 ng/ml): 0.88
ability of recombinant RTK ligand to confer resistance ([1]; G-361, PLX4720 - 2 uM, ligand 2500 ng/ml): 0.98
ability of recombinant RTK ligand to confer resistance ([1]; G-361, PLX4720 - 2 uM, ligand 10000 ng/ml): 0.96
ability of recombinant RTK ligand to confer resistance ([1]; G-361, PLX4720 - 2 uM, ligand 40000 ng/ml): 0.99
ability of recombinant RTK ligand to confer resistance ([1]; SK-MEL-5, PD184352 - 1 uM, ligand 156.25 ng/ml): 1.20
ability of recombinant RTK ligand to confer resistance ([1]; SK-MEL-5, PD184352 - 1 uM, ligand 625 ng/ml): 1.24
ability of recombinant RTK ligand to confer resistance ([1]; SK-MEL-5, PD184352 - 1 uM, ligand 2500 ng/ml): 1.30
ability of recombinant RTK ligand to confer resistance ([1]; SK-MEL-5, PD184352 - 1 uM, ligand 10000 ng/ml): 1.28
ability of recombinant RTK ligand to confer resistance ([1]; SK-MEL-5, PD184352 - 1 uM, ligand 40000 ng/ml): 1.66
ability of recombinant RTK ligand to confer resistance ([1]; SK-MEL-5, PLX4720 - 2 uM, ligand 156.25 ng/ml): 1.10
ability of recombinant RTK ligand to confer resistance ([1]; SK-MEL-5, PLX4720 - 2 uM, ligand 625 ng/ml): 1.18
ability of recombinant RTK ligand to confer resistance ([1]; SK-MEL-5, PLX4720 - 2 uM, ligand 2500 ng/ml): 1.27
ability of recombinant RTK ligand to confer resistance ([1]; SK-MEL-5, PLX4720 - 2 uM, ligand 10000 ng/ml): 1.26
ability of recombinant RTK ligand to confer resistance ([1]; SK-MEL-5, PLX4720 - 2 uM, ligand 40000 ng/ml): 1.43
ability of recombinant RTK ligand to confer resistance ([1]; SK-MEL-28, PD184352 - 1 uM, ligand 156.25 ng/ml): 1.01
ability of recombinant RTK ligand to confer resistance ([1]; SK-MEL-28, PD184352 - 1 uM, ligand 625 ng/ml): 0.97
ability of recombinant RTK ligand to confer resistance ([1]; SK-MEL-28, PD184352 - 1 uM, ligand 2500 ng/ml): 1.06
ability of recombinant RTK ligand to confer resistance ([1]; SK-MEL-28, PD184352 - 1 uM, ligand 10000 ng/ml): 1.13
ability of recombinant RTK ligand to confer resistance ([1]; SK-MEL-28, PD184352 - 1 uM, ligand 40000 ng/ml): 1.11
ability of recombinant RTK ligand to confer resistance ([1]; SK-MEL-28, PLX4720 - 2 uM, ligand 156.25 ng/ml): 1.02
ability of recombinant RTK ligand to confer resistance ([1]; SK-MEL-28, PLX4720 - 2 uM, ligand 625 ng/ml): 0.95
ability of recombinant RTK ligand to confer resistance ([1]; SK-MEL-28, PLX4720 - 2 uM, ligand 2500 ng/ml): 0.99
ability of recombinant RTK ligand to confer resistance ([1]; SK-MEL-28, PLX4720 - 2 uM, ligand 10000 ng/ml): 1.05
ability of recombinant RTK ligand to confer resistance ([1]; SK-MEL-28, PLX4720 - 2 uM, ligand 40000 ng/ml): 1.05
re-activation of pERK/pAKT [2]: only reactivate AKT
